In ChEMBL document CHEMBL1158941, “Diterpenes from the Pohnpeian marine sponge Chelonaplysilla sp” (J Nat Prod, 1991):
Activity calls are given as the source filed them. The rule behind the calls is not given here.

Assays:
Bacillus subtilis [1] = assay: Antimicrobial activity against Bacillus subtilis at 50 ug/disk; format: functional, organism-based
Bacillus subtilis [2] = assay: Antimicrobial activity against Bacillus subtilis at 5 ug/disk; format: functional, organism-based

In the case of `C=C1CCCC(C)(C)[C@@H]2CC[C@@](C)([C@@H]3[C@H]4CC(=O)O[C@H]4O[C@H]3O)[C@H]12`, the Activity (Bacillus subtilis [1]) is reported as “Active”.
`C=C([C@@H]1[C@@H]2OC(=O)C[C@H]1[C@H](OC(C)=O)O2)[C@H]1CC[C@H]2C(C)(C)CCCC(=C)[C@]12C` was tested, and the Activity (Bacillus subtilis [2]) was “Active”.
With `C=C1CCCC(C)(C)[C@@H]2CC[C@@](C)([C@@H]3[C@@H]4OC(=O)C[C@H]3[C@H](OC(C)=O)O4)[C@H]12` the Activity (Bacillus subtilis [2]) was “Active”.
